The values that follow come from US20100112600A1, “Methods and compositions for modulating synapse formation” (priority 2006, published 2010).

The test system of experiment [1] is MEF2A Ser408. As to the kind of experiment: Immunoblot of phospho-Ser408 MEF2A in depolarized granule neurons. Format: cell-based, rat. The conditions noted are these: granule neurons depolarized with 25 mM KCl; Nim 20 μM, CsA 4 μM.
Method: Lysates of granule neurons were depolarized with 25 mM KCl were immunoblotted for MEF2A, phospho-Ser408 MEF2A or ERK1/2. Nim=Nimodipine, 20 μM.
Cultures of primary granule neurons were isolated from P6 Long-Evans rats using known methods. Granule neurons were maintained in full medium (BME+10% calf serum (Hyclone), 1 mM each penicillin, streptomycin and L-glutamine and 25 mM KCl). Granule neurons were transfected in DMEM by DNA-calcium phosphate precipitation using standard methods.
Experiment [2] concerns endogenous MEF2A. As to the kind of experiment: Immunoblot of sumoylation and acetylation of endogenous MEF2A in depolarized granule neurons. The experiment is classed as cell-based, rat.
Method: In FIG. 3F, granule neurons in non-depolarizing concentrations of KCl (5 mM) were lysed in the presence or absence of the isopeptidase inhibitor N-ethylmaleimide (NEM) and immunoblotted for MEF2A. […] In FIG. 3G, granule neurons are exposed to media containing non-depolarizing (5 mM) or depolarizing (25 mM) concentrations of KCl in the presence of nimodipine (Nim) or its control vehicle (DMSO) were lysed in the presence of NEM and immunoblotted as in FIG. 3F. […] Cultures of primary granule neurons were isolated from P6 Long-Evans rats using known methods. Granule neurons were maintained in full medium (BME+10% calf serum (Hyclone), 1 mM each penicillin, streptomycin and L-glutamine and 25 mM KCl).
The test system of experiment [3] is Nur77 promoter. The experiment is described as follows: Nur77-luciferase reporter gene assay in granule neurons. Format: cell-based, rat. The conditions noted are these: depolarized granule neurons. On the procedure:
FIG. 5C is a bar graph. […] Treatment with CsA prevented depolarization-induced expression of the WT Nur77-luciferase reporter gene (p<0.0001, ANOVA; n=6), but had no effect on MREmut Nur77-luciferase reporter gene.
(§1) Luciferase assays were performed as described (Shalizi et al., 2006, Science 311: 1012-1017) with minor modifications. Granule neurons were transfected with the reporter constructs pNur77-luc or pNur77mut-luc and pRL-TK and the indicated hpRNA expression plasmids, and an expression construct for Bcl-XL. Granule neurons were switched from full medium to fresh BME supplemented with 5% calf serum (Hyclone) 72 hours after transfection and incubated overnight. 293T cells maintained as described were cotransfected with p5G4luc or pMEF2×3luc and pRL-TK reporter constructs and the indicated expression plasmids by DNA-calcium phosphate precipitation. Fresh growth media was added within 24 hours of transfection. Cells were lysed 48 hours after transfection. In both neurons and 293T cells, firefly-and renilla-luciferase activities were determined using a dual-luciferase assay kit (Promega) according to the manufacturers instructions.
Primary rat cerebellar granule neurons were transfected with the U6/piasx1, U6/piasx2, or control U6 RNAi plasmid together with a luciferase reporter gene controlled by the Nur77 promoter containing two MEF2 response elements (MREs). […]
(In a reporter assay the amount or activity of a reporter protein is the signal.)

Experiment [4] relates to MEF2-response elements (MRE-luciferase). As to the kind of experiment: MRE-luciferase reporter gene assay in cells. The experiment is classed as cell-based. The conditions noted are these: co-transfected expression plasmid. The method, then:
FIG. 4B is a bar graph and a series of immunoblots. Cells coexpressing MEF2A and increasing amounts of MEF2A-SUMO together with a 3-MRE luciferase reporter gene (pMEF2×3-luc) and pRL-TK. […] Lysates were also immunoblotted for MEF2 or ERK1/2.
as §1
Sumoylation of MEF2A represses MEF2-dependent transcription. The effect of PIASx expression on MEF2-dependent transcription in cells was examined. […]

Experiment [5] deals with granule neuron dendritic claws. The experiment is described as follows: Dendritic claw number of granule neurons in organotypic cerebellar slices. The experiment is classed as cell-based, rat.
Method: The role that MEF2A plays in synaptic dendritic development in the cerebellar cortex was determined. […] To visualize granule neurons undergoing postsynaptic differentiation, organotypic cerebellar slices prepared from postnatal day 9 (P9) rat pups were transfected with an expression plasmid encoding green fluorescent protein (GFP). Transfected granule neurons in the internal granular layer (IGL) had the typical small cell body with associated parallel axonal fibers and few dendrites (FIGS. 1A and 1B). Many dendrites harbored structures with the appearance of dendritic claws that were identified based on classic descriptions as: (i) located at the end of a dendrite, (ii) having cup- or sickle-like appearance, and (iii) displaying undulating or serrated inner surfaces (FIGS. 1C and 1D). […] The effect of MEF2A knockdown on granule neuron dendritic morphogenesis was next determined. Cerebellar slices were transfected with the U6/mef2a plasmid that encodes MEF2A hairpin RNAs (MEF2AhpRNA) or the control U6 plasmid together with a GFP expression plasmid.
Slices were prepared and processed using known methods. […]
Microscopy was carried out using standard methods. […] Images of transfected granule neurons were analyzed using SPOT software for dendritic length, number of primary dendrites, and number of branches per primary dendrite as described.

With cyclosporin A, the “depolarization-induced dephosphorylation of MEF2A at Ser408” value in experiment [1] is recorded as “blocked”. In experiment [2] (depolarized neurons), the “acetylation of endogenous MEF2A” value is “decreased”. In addition, the “sumoylation of endogenous MEF2A” value in experiment [2] (depolarized neurons (25 mM KCl)) is “increased”. In experiment [3] (Nur77 promoter with mutant MRE), the “MREmut Nur77-luciferase reporter gene” value is recorded as “no effect”. In addition, in experiment [3] (Nur77 promoter with wild type MRE), the “depolarization-induced expression of the WT Nur77-luciferase reporter gene” value is reported as “prevented”.

B1: PIASx: MEF2A SUMO E3 ligase; PIASxα and PIASxβ isoforms collectively (protein, UniProt O75928 1-621, looked up)
E3 SUMO-protein ligase PIAS2: MADFEELRNMVSSFRVSELQVLLGFAGRNKSGRKHDLLMRALHLLKSGCSPAVQIKIRELYRRRYPRTLEGLSDLSTIKSSVFSLDGGSSPVEPDLAVAGIHSLPSTSVTPHSPSSPVGSVLLQDTKPTFEMQQPSPPIPPVHPDVQLKNLPFYDVLDVLIKPTSLVQSSIQRFQEKFFIFALTPQQVREICISRDFLPGGRRDYTVQVQLRLCLAETSCPQEDNYPNSLCIKVNGKLFPLPGYAPPPKNGIEQKRPGRPLNITSLVRLSSAVPNQISISWASEIGKNYSMSVYLVRQLTSAMLLQRLKMKGIRNPDHSRALIKEKLTADPDSEIATTSLRVSLMCPLGKMRLTIPCRAVTCTHLQCFDAALYLQMNEKKPTWICPVCDKKAAYESLILDGLFMEILNDCSDVDEIKFQEDGSWCPMRPKKEAMKVSSQPCTKIESSSVLSKPCSVTVASEASKKKVDVIDLTIESSSDEEEDPPAKRKCIFMSETQSSPTKGVLMYQPSSVRVPSVTSVDPAAIPPSLTDYSVPFHHTPISSMSSDLPGLDFLSLIPVDPQYCPPMFLDSLTSPLTASSTSVTTTSSHESSTHVSSSSSRSETGVITSSGSNIPDIISLD
Turning to B1, the “MRE-dependent transcription (luciferase reporter)” value in experiment [4] is on record as “potently inhibited”. The “dendritic claw number on expression of the construct” value in experiment [5] (cerebellar slices transfected with expression plasmid vs control vector) is given as “robustly increased”.

B2: PIASx-Res: wild type PIASx protein expressed from cDNA resistant to piasx2 hpRNAs (protein, UniProt O75928 1-621, looked up)
E3 SUMO-protein ligase PIAS2: MADFEELRNMVSSFRVSELQVLLGFAGRNKSGRKHDLLMRALHLLKSGCSPAVQIKIRELYRRRYPRTLEGLSDLSTIKSSVFSLDGGSSPVEPDLAVAGIHSLPSTSVTPHSPSSPVGSVLLQDTKPTFEMQQPSPPIPPVHPDVQLKNLPFYDVLDVLIKPTSLVQSSIQRFQEKFFIFALTPQQVREICISRDFLPGGRRDYTVQVQLRLCLAETSCPQEDNYPNSLCIKVNGKLFPLPGYAPPPKNGIEQKRPGRPLNITSLVRLSSAVPNQISISWASEIGKNYSMSVYLVRQLTSAMLLQRLKMKGIRNPDHSRALIKEKLTADPDSEIATTSLRVSLMCPLGKMRLTIPCRAVTCTHLQCFDAALYLQMNEKKPTWICPVCDKKAAYESLILDGLFMEILNDCSDVDEIKFQEDGSWCPMRPKKEAMKVSSQPCTKIESSSVLSKPCSVTVASEASKKKVDVIDLTIESSSDEEEDPPAKRKCIFMSETQSSPTKGVLMYQPSSVRVPSVTSVDPAAIPPSLTDYSVPFHHTPISSMSSDLPGLDFLSLIPVDPQYCPPMFLDSLTSPLTASSTSVTTTSSHESSTHVSSSSSRSETGVITSSGSNIPDIISLD
modifications: expressed from hpRNA-resistant cDNA
notes: wild type PIASx protein expressed from cDNA resistant to piasx2 hpRNAs
Turning to B2, the “number of claws restored, relative to control U6 transfected cerebellar slices” value in experiment [5] (expression in the background of piasx2 RNAi) was approximately 80%.
